The values that follow come from patent publication US20080138411A1, “Modified Release Formulations Of Selective Serotonin Re-Uptake Inhibitors” (priority 2002, published 2008).

For data set [1] the following is noted: cited from earlier work.
A short description of data set [2]: Particle size measurement of Citalopram HBr, Paroxetine HCl and Fluoxetine HCl. In kind it is physicochemical. The following applies: for D (v, 0.9) / D (v. 0.1) / Mean, D [4, 3] / Median, D (v, 0.5) / Span / Uniformity: Dispersed in air, Distribution Type: Volume. The protocol:
Particle size measurements were conducted on Paroxetine HCl.

For data set [3] the following is noted: cited from earlier work. This is another data set of the same source.
For data set [4] the following is noted: cited from earlier work. This is another data set of the same source.
For data set [5] the following is noted: cited from earlier work. This is another data set of the same source.
Where [6] appears, read: 30 mg tablets daily for 30 days, normal male subjects.
Setting [7] is: 30 mg tablets daily for 30 days.
Where [8] appears, read: single dose with and without food.

Structures can show the parent of a compound that is named as a salt. Where two headings read alike, the source gives them in different places.

Regarding `CN(C)CCCC1(c2ccc(F)cc2)OCc2cc(C#N)ccc21` (racemic) [Citalopram, (RS)-1-[3-(dimethylamino)propyl]-1-(4-fluorophenyl)-5-phthalancarbonitrile hydrobromide], the absolute bioavailability entry in data set [1] (relative to an intravenous dose) is “about 80%”. Also, in data set [1] (single oral dose (40 mg tablet)), the “time at which peak blood levels occur” value is listed as “about 4 hours”.

As for `Br.CN(C)CCCC1(c2ccc(F)cc2)OCc2cc(C#N)ccc21` (centres unmarked) [Citalopram HBr Provided by Supplier 1], in data set [2] (Dist. Base: Volume), the “Dia.on % (10.0%)” value is listed as 3.267 µm, the “Dia.on % (20.0%)” value is recorded as 4.606 µm, the “Dia.on % (35.0%)” value was found to be 6.212 µm and the “Dia.on % (70.0%)” value amounted to 10.295 µm. In addition, in data set [2] (Dist. Base: Volume), the “Dia.on % (90.0%)” value is 14.874 µm; the “Particle size, C.V.” value is on record as 54.90%; the “Particle size, Mean” value is given as 8.569 µm; the “Particle size, Median” value was determined as 7.781 µm. Further, in data set [2] (Dist. Base: Volume), the “Particle size, Mode” value is reported as 8,253 µm; the “SP. Area” value was 10290 cm^2/cm^2; the “Span: (D 20.0-D 10.0)/D50” value is listed as “Span: (D 20.0-D 10.0)/D50 = 0.172”.

`Br.CN(C)CCCC1(c2ccc(F)cc2)OCc2cc(C#N)ccc21` (centres unmarked) [Citalopram HBr Provided by Supplier 2]: in data set [2], the “D (v, 0.9)” value came out at 1191.10 µm; the “D (v. 0.1)” value came to 1.62 µm; the “Mean, D [4, 3]” value is “Mean, D [4, 3] = 259.27 µm”; the “Median, D (v, 0.5)” value turned out to be 7.27 µm. In addition, in data set [2], the Span entry is “Span = 1.637E+02” and the Uniformity result was “Uniformity = 3.518E+01”.

For the compound `CN(C)CCC[C@@]1(c2ccc(F)cc2)OCc2cc(C#N)ccc21` [Escitalopram, S-(+)-1-[3-(dimethyl-amino)propyl]-1-(β-fluorophenyl)-5-phthalancarbonitrile oxalate], the “single and multiple dose pharmacokinetics” value in data set [3] (dose range of 10 to 30 mg per day) is “linear and dose proportional”. Besides, the “mean Tmax” value in data set [3] (single oral dose (20 mg tablet)) is 5 ± 1.5 h.

Regarding `CNCCC(Oc1ccc(C(F)(F)F)cc1)c1ccccc1.Cl` (centres unmarked) [Fluoxetine HCl Provided by Supplier 1], in data set [2] (Dist. Base: Volume), the “Dia.on % (10.0%)” value was 7.877 µm, the “Dia.on % (20.0%)” value worked out at 10.941 µm, the “Dia.on % (35.0%)” value is 15.114 µm and the “Dia.on % (70.0%)” value is on record as 29.4885 µm. Moreover, in data set [2] (Dist. Base: Volume), the “Dia.on % (90.0%)” value came to 118.199 µm; the “Particle size, C.V.” value was found to be 161.24%; the “Particle size, Mean” value is reported as 45.505 µm; the “Particle size, Median” value was 19.672 µm. Also, in data set [2] (Dist. Base: Volume), the “SP. Area” value worked out at 3861 cm^2/cm^2.

In the case of `CNCCC(Oc1ccc(C(F)(F)F)cc1)c1ccccc1.Cl` (centres unmarked) [Fluoxetine HCl Provided by Supplier 2], in data set [2] (Dist. Base: Volume), the “Dia.on % (10.0%)” value was 5.668 µm, the “Dia.on % (20.0%)” value is 9.337 µm, the “Dia.on % (35.0%)” value was determined as 14.546 µm and the “Dia.on % (70.0%)” value is reported as 42.5575 µm. Also, in data set [2] (Dist. Base: Volume), the “Dia.on % (90.0%)” value came out at 296.388 µm; the “Particle size, C.V.” value is on record as 144.70%; the “Particle size, Mean” value was found to be 86.383 µm; the “Particle size, Median” value was found to be 20.638 µm. Further, in data set [2] (Dist. Base: Volume), the “SP. Area” value is 5004 cm^2/cm^2.

In general, Cmax refers to the peak of the concentration-time curve. Broadly, the Tmax is the time at which the peak concentration occurs. Turning to `Fc1ccc([C@@H]2CCNC[C@H]2COc2ccc3c(c2)OCO3)cc1` [Paroxetine, (−)-trans-4R-(4′-fluorophenyl)-3S[(3′,4′-methylenedioxyphenoxy)methyl]piperidine hydrochloride (hemihydrate)], in data set [2], the “D (v, 0.9)” value is recorded as “D (v, 0.9) = 16.56 µm”; the “D (v. 0.1)” value is reported as “D (v. 0.1) = 0.85 […]mMedian,”; the “Mean, D [4, 3]” value was “Mean, D [4, 3] = 11.02 µm”; the “Median, D (v, 0.5)” value was “D (v, 0.5) = 4.44 µm”. In addition, in data set [2], the Span entry is “Span = 3.541E+00” and the Uniformity entry was “Uniformity = 1.980E+00”. In data set [4] (setting [6]), the “Cmax at steady state, mean” value was 61.7 ng/mL; the “Cmin at steady state, mean” value was 30.7 ng/mL; the “Tmax at steady state, mean” value was 5.2 h; the “t1/2 at steady state, mean” value is 21.0 h. In addition, in data set [4] (setting [7]), the “steady state Cmax relative to prediction from single dose studies” value was “about 6 times”, the “steady state Cmin relative to prediction from single dose studies” value is recorded as about 14 times and the “steady state drug exposure based on AUC0-24 relative to prediction from single dose data” value is recorded as “about 8 times”. Besides, the “time to steady state Paroxetine concentrations” value in data set [4] (30 mg tablets daily, most subjects) is recorded as “approximately 10 days”. Further, in data set [4] (setting [8]), the “increase of AUC when administered with food” value was 6% and the “increase of Cmax when administered with food” value is reported as 29%. In data set [4] (single dose with food), the “time to reach peak plasma concentration” value was 4.9 h. In addition, the “time to reach peak plasma concentration” value in data set [4] (single dose without food) is 6.4 h.

Turning to `CN[C@H]1CC[C@@H](c2ccc(Cl)c(Cl)c2)c2ccccc21.Cl` [Sertraline, (1S-cis)-4(3,4-dichlorophenyl)-1,2,3,4-tetrahydro-N-methyl-1-naphthalenamine hydrochloride], the Tmax in data set [5] (oral concentrate, single dose with food) is 7.0 h. Further, the “increase of Cmax with food” value in data set [5] (tablet, single dose with and without food) was 25%.
